Tests used:
Assay in all cases: relative viability (nuclei count vs DMSO), 5 days (fraction); higher = more cells survive
[1] = compound: C1=CC(=CC=C1NC(=S)NNC2=C(C=C(C=C2[N+](=O)[O-])C(F)(F)F)[N+](=O)[O-])F [Kobe2602] + CC1(C)CCC(c2ccc(Cl)cc2)=C(CN2CCN(c3ccc(C(=O)NS(=O)(=O)c4ccc(N[C@H](CCN5CCOCC5)CSc5ccccc5)c(S(=O)(=O)C(F)(F)F)c4)cc3)CC2)C1 [Navitoclax] (partner 0.5 µM)
Outline: (§1)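 One day after seeding in 1536-well plates, lung cancer cell lines were dosed by pin tool. Dosing was either single-drug or a fixed anchor-drug dose plus five library-drug doses (not always all listed) in √10 steps. After 5 days, nuclei were stained in one fix-and-stain step and counted on 4× images, and relative viability is the nuclei count of treated wells over that of vehicle wells, given as the median of duplicate plates.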

[2] = compound: C1=CC(=CC=C1NC(=S)NNC2=C(C=C(C=C2[N+](=O)[O-])C(F)(F)F)[N+](=O)[O-])F [Kobe2602] + Cc1nc(NC(=O)N2CCC[C@H]2C(N)=O)sc1-c1ccnc(C(C)(C)C(F)(F)F)c1 [Alpelisib] (partner 2 µM)
Outline: as §1

[3] = compound: COc1cc2nccc(Oc3ccc(NC(=O)C4(C(=O)Nc5ccc(F)cc5)CC4)cc3)c2cc1OC [Cabozantinib] + Cc1cc(Nc2cc(N3CCN(C)CC3)nc(Sc3ccc(NC(=O)C4CC4)cc3)n2)n[nH]1 [Tozasertib] (partner 0.1 µM)
Outline: as §1

[4] = compound: O[C@@H](COc1cccc2ncccc12)CN1CCN([C@@H]2c3ccccc3[C@@H]3[C@H](c4ccccc42)C3(F)F)CC1 [Zosuquidar] + O=C(CCCCCCC(=O)Nc1ccccc1)NO [Vorinostat] (partner 1 µM)
Outline: as §1

UMC-11
relative viability ([1]; first compound 0.2 µM): 0.322 | relative viability ([1]; first compound 0.6325 µM): 0.327 | relative viability ([1]; first compound 2 µM): 0.292 | relative viability ([1]; first compound 6.325 µM): 0.312 | relative viability ([1]; first compound 20 µM): 0.316 | relative viability ([2]; first compound 0.2 µM): 1 | relative viability ([2]; first compound 0.6325 µM): 1.03 | relative viability ([2]; first compound 2 µM): 0.954 | relative viability ([2]; first compound 6.325 µM): 0.94 | relative viability ([2]; first compound 20 µM): 0.976 | relative viability ([3]; first compound 0.02 µM): 0.192 | relative viability ([3]; first compound 0.06325 µM): 0.2 | relative viability ([3]; first compound 0.2 µM): 0.203 | relative viability ([3]; first compound 0.6325 µM): 0.204 | relative viability ([3]; first compound 2 µM): 0.202 | relative viability ([4]; first compound 0.01 µM): 0.381 | relative viability ([4]; first compound 0.03162 µM): 0.483 | relative viability ([4]; first compound 0.1 µM): 0.505 | relative viability ([4]; first compound 0.3162 µM): 0.432 | relative viability ([4]; first compound 1 µM): 0.387
